# Results: US20100310674A1, “NOVEL COMPOSITION FOR TREATING THE SIDE EFFECTS OF ANTICANCER TREATMENTS” (TROPHOS, priority 2007, published 2010)
# What was measured:
# [1] = system: tactile allodynia induced by vincristine sulphate; assay: Tactile allodynia induced by cumulative doses of vincristine sulphate in the rat (paw withdrawal threshold, Dynamic Plantar Aesthesiometer); assay type: in vivo, rat (WISTAR); details: for anti-allodynic effect on first day of administration: day 10
# Procedure: The effect of cholest-4-en-3-one oxime on tactile allodynia induced by cumulative doses of vincristine sulphate was evaluated in the rat. Adult male WISTAR rats weighing approximately 250 g were used. Vincristine sulphate was injected by intravenous route at 200 μg/kg on days 1, 4 and 6 (total cumulative dose of 600 μg/kg). The animal's paw withdrawal thresholds to harmless mechanical stimulation were measured in the rats on days 0, 3, 5, 7 and then every day from day 10 to day 14. The cholest-4-en-3-one oxime (10, 30 and 100 mg/kg once daily) was administered by oral route from day 10 to day 14 and the paw withdrawal thresholds were measured 4 hours after administration of the cholest-4-en-3-one oxime. 8 rats were used per tested dose. The mechanical stimulation thresholds at which the animals withdraw their hind paw in response to mechanical stimulations were measured using a Dynamic Plantar Aesthesiometer (Ugo Basile, Italy). Briefly, in a temperature-controlled room (approximately 22° C.) each animal was placed in a transparent cubic box made of Perspex (22×16.5×14 cm) containing a metal mesh floor giving access to the soles of its paws and left for 15 minutes before the test in order for it to acclimatize. A mechanical stimulus was applied to the left hind paw using a stainless filament (0.5 mm in diameter) exerting a force which increases linearly (2.5 g/sec). The force (g) at which the animal withdraws its paw was recorded automatically. Each paw withdrawal threshold was calculated as the average of three consecutive tests carried out at 5-minute intervals by an investigator ignorant of the treatments used on each of the animals. A 50 g limit was imposed in order to prevent tissue damage. A stock solution of cholest-4-en-3-one oxime in corn oil was prepared on the first day of the experiment and administered once daily by oral tube feeding (5 ml/kg). The cholest-4-en-3-one oxime was reduced to a fine powder and mixed with the necessary quantity of excipient in order to obtain concentrations of […], 6 and 20 mg/ml, the mixture is then homogenized by magnetic stirring for at least 10 minutes. Stock solutions were kept at 4° C. between administrations. A statistical analysis was carried out using a two-way ANOVA test followed by Tukey's test in order to compare the effect of the test compound with respect to the excipient.
# [2] = system: cold allodynia induced by oxaliplatin; assay: Cold allodynia (acetone drop) induced by cumulative doses of oxaliplatin in the rat; assay type: in vivo, rat (Sprague-Dawley)
# Procedure: The effect of the cholest-4-en-3-one oxime on cold allodynia induced by cumulative doses of oxaliplatin were evaluated in the rat. Adult male Sprague-Dawley rats weighing approximately 150 g were used. The oxaliplatin was injected by intra-peritoneal route at 3 mg/kg three times a week and for three weeks (total cumulative dose of 27 mg/kg). The paw withdrawal time as well as the amplitude of the animal's response to harmless thermal stimulations using a drop of acetone were measured in the rats before and after treatment by oxaliplatin on days 1 and 18 respectively, and then on each day of treatment with cholest-4-en-3-one oxime, from day 22 to day 25. The cholest-4-en-3-one oxime (1, 10 and 100 mg/kg once daily) was administered by oral route from day 22 to day 25 and the thresholds for withdrawal of the paw were measured 4 hours after administration of the cholest-4-en-3-one oxime. 7 to 9 rats were used per dose tested. For each animal, the reaction times at which the animals withdrew their hind paw following the deposition of the drop of acetone were calculated as the average of six consecutive tests carried out at 5-minute intervals by an investigator ignorant of the treatments applied to each of the animals. A limit of 20 seconds was imposed. The amplitude of the response to the drop of acetone was marked on a scale of 0 to 3: 0 (no response); 1 (rapid withdrawal of the paw); 2 (prolonged withdrawal of the paw); 3 (repeated withdrawal of the paw with licking and/or biting). The score of each of the six tests was totalled. A stock solution of cholest-4-en-3-one oxime in corn oil was prepared on the first day of the experimentation and administered once daily by oral tube feeding (5 ml/kg). The cholest-4-en-3-one oxime was reduced to a fine powder and mixed with the necessary quantity of vehicle in order to obtain concentrations of 0.2, 2 and 20 mg/ml, the mixture is then homogenized by magnetic stirring for at least 10 minutes. Stock solutions were kept at 4° C. between administrations. A statistical analysis was carried out using a two-way ANOVA test followed by Bonferroni's test in order to compare the effect of the test compound with respect to the vehicle.
# [3] = system: neuropathies induced by paclitaxel; assay: Hypersensitivity to pain (mechanical allodynia 4 gVFH, mechanical hyperalgesia 15 gVFH) in rat model of neuropathies induced by paclitaxel; assay type: in vivo, rat (Sprague-Dawley); details: for anti-allodynia (4 gVFH) / anti-hyperalgesia (15 gVFH): AUC D16-D40
# Procedure: Adult male Sprague-Dawley rats were used.
# Paclitaxel (6 mg/ml in a 50:50 mixture of Cremophor and ethanol) was diluted just before use with a […] sodium chloride solution at a concentration of 2 mg/ml and injected by intraperitoneal route in a volume of 1 ml/kg on days 0, 2, 4 and 6.
# Fresh solutions of cholest-4-en-3 one oxime (Sigma) in corn oil were prepared each week at a concentration of 0.6 or 6.0 mg/ml. This solution was given to the animal by oral tube feeding in a volume of 5 ml/kg.
# Three groups of 12 animals treated with paclitaxel were formed: • group 1: cholest-4-en-3-one oxime at 3 mg/kg per os, daily for 17 days (day(−1)-day(15), commencing on the day before the first injection of paclitaxel and continuing for 9 days after the last injection of paclitaxel). On the days when the cholest-4-en-3-one oxime and the paclitaxel had to be administered, the cholest-4-en-3-one oxime was given at 9:00 h, and the paclitaxel at 13:00 h; • group 2: as above except that the cholest-4-en-3-one oxime was given at 30 mg/kg; • group 3: as above except that the animals received an identical volume of excipient (corn oil);
# The animals were habituated to the test environment for 3 separate days and then 3 sessions per day were organized in order to establish the normal response to a von Frey hairs (VFH) stimulation exerting pressure of 4 g or 15 g (4 gVFH or 15 gVFH). Normal rats rarely withdraw from a stimulation with 4 gVFH; thus, an increase in response post treatment with paclitaxel is a sign of mechanical allodynia. Normal rats withdraw from a stimulation with 15 gVFH 10-20% of the time; thus an increased frequency of response to this stimulus indicates mechanical hyperalgesia.
# The animals were placed in cages containing a metal mesh floor giving access to the soles of the animals' paws. Each mechanical stimulus was applied to the middle of the heel of the left hind paw. The presence or absence of withdrawal of the paw was noted. This was repeated 5 times on each hind paw and the animals' responses were summarized as a percentage of responses (5 withdrawals of the paw in response to a stimulation of 15 gVFH corresponded to a score of 50%).
# The rats were habituated to the test environment for 3 days. Tests relating to the reference level of sensitivity at 4 g and 15 gVFH were carried out for 3 consecutive days; the average of the last two corresponded to the level of sensitivity before treatment with paclitaxel. The behaviour tests for testing the effects of paclitaxel commenced on day 16 and were repeated on days 19, 22, 25, 28, 31, 35 and 40, by an investigator ignorant of the treatments applied to each of the animals.
# The area-under-the-curve values were calculated for each group during the period from D16 to D40 (from the start of the appearance of the pain due to the paclitaxel to the end of the experiment). The AUC values were analyzed with an ANOVA test followed by comparison “in pairs” with the group having received the excipient by Dunnett's t-test.
# [4] = 3 mg/kg per os daily for 17 days
# [5] = 30 mg/kg per os daily for 17 days
compound,measurement,setting,value
CC(C)CCC[C@@H](C)[C@H]1CC[C@H]2[C@@H]3CCC4=CC(=NO)CC[C@]4(C)[C@H]3CC[C@]12C [cholest-4-en-3-one oxime],anti-allodynic effect on first day of administration,"[1]; oral 10 mg/kg, p=0.086",no significant anti-allodynic effect
same,anti-allodynic effect on first day of administration,"[1]; oral 30 mg/kg, P=0.232",no significant anti-allodynic effect
same,"effect on allodynia induced by vincristine, daily treatment","[1]; oral 10, 30 and 100 mg/kg once daily, days 11 to 14, P<0.05 in all cases",significantly alleviates the allodynia
same,effect on allodynia induced by vincristine vs excipient,"[1]; single oral dose 100 mg/kg, day 10, measured 4 hours after administration, P<0.001",significantly alleviates the allodynia
same,anti-allodynic effect on first day of administration,"[2]; lower doses (1 and 10 mg/kg oral), day 22",no significant anti-allodynic effect
same,anti-allodynic effect after daily treatment,"[2]; oral 100 mg/kg once daily, days 22 to 25",persisted
same,effect on cold allodynia induced by oxaliplatin from third day of administration,"[2]; oral 1 and 10 mg/kg once daily, day 24, P<0.05",significantly reduced the cold allodynia
same,effect on allodynia induced by oxaliplatin vs excipient,"[2]; single oral dose 100 mg/kg, day 22, P<0.05",significantly reduced the allodynia
same,development of mechanical allodynia and hyperalgesia,"[3]; 3 mg/kg and 30 mg/kg per os daily day -1 to day 15, AUC D16 to D40, p<0.01",significantly inhibited
same,anti-allodynia (4 gVFH),[3]; [4],59%
same,anti-hyperalgesia (15 gVFH),[3]; [4],45%
same,anti-allodynia (4 gVFH),[3]; [5],53%
same,anti-hyperalgesia (15 gVFH),[3]; [5],40%
